Test results: patent US20180147767A1, “METHODS OF EXTRUDING MULTILAYER FIBERS” (THE BOARD OF TRUSTEES OF UNIVERSITY OF ILLINOIS, priority 2015, published 2018)

Key:
[1] = read-out: approximate IC50; cited from earlier work
[2] = tested on: RAW 264.7 mouse macrophage cells and MDA-MB-231 human adenocarcinoma cells; assay: Macrophage to tumor cell volume ratio per fiber (3D stack counting); conditions: Day 4, compared to the other samples
Text: CellTracker Green CM FDA dye and CellTracker CM-Dil dye (Life Technologies) were used to label RAW and 231 cells respectively according to manufacturer's instructions. Labeled 231 cells were dispersed in the alginate solution at a concentration of 5×10^6 cells/mL. Labeled RAW cells were dispersed in CaCl2 solution at a concentration of 4.5×10^7 cells/mL. After fiber generation, fibers were cut into approximately 20 mm sections and stored in 24-well cell culture plates containing media and pharmacological drugs. […] A vehicle control of 2% DMSO in cell culture media was also used. The cells were incubated at 37° C., 5% CO2 environment, with media changes every 2 days.

[3] = tested on: RAW 264.7 mouse macrophage cells and MDA-MB-231 human adenocarcinoma cells; assay: Co-localization and migration of macrophages and tumor cells co-cultured in multilayer alginate fibers (CellTracker confocal imaging, Pearson correlation factor, Coloc2); type: cell-based; conditions: for calculated correlation factor (Pearson): Day 4, drug at approximate IC50: 50 μM for ZA and Rac1, 50 nM for GEF; for migration and co-localization of macrophages with tumor cells: co-cultured fibers, four days of incubation, FIG. 6a
Text: Using CellTracker™-labeling and confocal fluorescence microscopy to quantify the co-localization of the tumor cells and macrophages in co-culture over time (FIG. 8). To calculate correlation factor, ImageJ Fiji with the Coloc2 plugin may be utilized. The images are split into separate channels for macrophages (a) and breast cancer (b) cells and despeckled to remove noise.

Row | Structure (SMILES) | IC50 [1] [µM] | TC/Mϕ ratio [2] | calculated correlation factor (Pearson) [3] | calculated correlation factor (Pearson) ([3]; listed as inhibitor of Rac1) | inhibition of migration and co-localization (TC-Mϕ correlation compared to TC/Mϕ ratio) ([3]; FIG. 7b, straight and patterned fibers) | migration and co-localization of macrophages with tumor cells [3]
1 | Cc1ccc(NC(=O)c2cccc(OCc3c(C)noc3C)c2)cc1S(N)(=O)=O [RAC, Rac1 Inhibitor II] | ~50 | significantly higher | decreases | return to anti-correlation comparable to initial seeding (Day 0) | highest inhibition of migration and co-localization | distinct impairment of migration and co-localization
2 | COc1cc2ncnc(Nc3ccc(F)c(Cl)c3)c2cc1OCCCN1CCOCC1 [GEF, Gefitinib] |  |  | decreases |  |  | distinct impairment of migration and co-localization
